Data as given in patent US10189803B2, “Synthesis of therapeutic and diagnostic drugs centered on regioselective and stereoselective ring opening of aziridinium ions” (ILLINOIS INSTITUTE OF TECHNOLOGY, priority 2008, dated 2019).

Assays:
[1] = In vitro serum stability of radiolabeled C-NE3TA complexes in human serum (SE-HPLC); format: in vitro ADME; conditions: 37° C., up to 11 days
Protocol: C-NE3TA was radiolabeled with ^90Y, ^177Lu, ^203Pb, ^205/6Bi, or ^153Gd as previously described (Chong, H. S.; Milenic, D. E.; Garmestani, K.; Brady, E. D.; Arora, H.; Pfiester, C.; Brechbiel, M. W., Nucl. Med. Biol. 2006, 33, 459-67; Chong H S, Garmestani K, Bryant Jr., L H Milenic D E, Overstreet T, Birch N, Le N, Brady E D, Brechbiel M W. J. Med. Chem. 2006, 49, 2055-2062). In vitro serum stability of the radiolabeled complexes purified via ion-exchange chromatography was performed to determine if C-NE3TA labeled with the radioisotopes remained stable without transchelation or loss of their respective radionuclide in human serum. This was assessed by measuring the transfer of radionuclide from the complex to serum proteins over the course of 11 days.
In vitro stability of the radiolabeled metal complexes. The stability of the purified radiolabeled complexes was evaluated in human serum (Gemini Bioproducts, Woodland, Calif.) for up to 11 days. The serum stability of the radiolabeled complexes was assessed by measuring the transfer of the radionuclide from each complex to serum proteins using SE-HPLC methods. Radiolabeled complexes were diluted to an appropriate volume that allowed for preparation of multiple samples containing 5-10 μCi and were filter-sterilized using a Millex-GV 0.22 μm filter. This stock solution was then mixed with 1400 μL of sterile normal human serum. Aliquots (200 μL) were drawn and separated into individual tubes for subsequent analysis using aseptic technique. The samples were incubated at 37° C., and at designated intervals, subjected to analysis by SE-HPLC. Samples were loaded onto the HPLC and eluted with PBS, pH 7.4 isocratically at 1 mL/min. […] Radioactivity associated with a transfer to serum proteins generally appeared at ˜6 min.

[2] = In vivo biodistribution of radiolabeled complexes in normal athymic mice; conditions: for percent injected dose per gram, Blood / percent injected dose per gram, Femur / percent injected dose per gram, Heart / percent injected dose per gram, Kidney / percent injected dose per gram, Liver / percent injected dose per gram, Liver (second Liver line of Table 7) / percent injected dose per gram, Lung / percent injected dose per gram, Spleen: non-tumor bearing mice, ± SD
Protocol: The in vivo stability of the radiolabeled complexes was evaluated by performing biodistribution studies in normal athymic mice. Selected organs and the blood were harvested at five time points, 0.5, 1, 4, 8, and 24 h post-injection and the radioactivity measured. […] C-NE3TA radiolabeled with ^153Gd was almost completely cleared from blood, liver, spleen, lung, heart, and femur in less than 4 hours, and radioactivity level in the kidney was 0.16%±0.11 ID/g at 24 hour post-injection (Table 9).
In vivo biodistribution studies oh the radiolabeled metal complexes. Female athymic mice were obtained from Charles River Laboratories (Wilmington, Mass.) at 4-6 weeks of age. The pH of the radiolabeled ligands was adjusted to pH ˜7.0 with 0.5 M sodium bicarbonate (pH 10.5) and diluted in phosphate-buffered saline. The radiolabeled ligands ([…] for ^86Y, ^205/6Bi, ^177Lu, and ^203Pb) were administered to the mice in 200 μL of solution via tail vein injection. The mice (5 per data point) were sacrificed by exsanguination at 0.5, 1, 4, 8, and 24 h. Blood and the major organs were harvested, wet-weighed and the radioactivity measured in a γ-scintillation counter (1480 Wizard, Perkin Elmer). The percent injected dose per gram (% ID/g) was determined for each tissue. The values presented are the mean and standard deviation for each tissue.

O=C(O)CNC(Cc1ccc([N+](=O)[O-])cc1)CN1CCN(CC(=O)O)CCN(CC(=O)O)CC1.[90Y] (stereo not drawn) [^90Y-C-NE3TA]
stability in human serum (in words) [1]: no measurable loss of radioactivity
percent injected dose per gram, Blood ([2]; 0.50 hr): 1.86 ± 1.92 % ID/g
percent injected dose per gram, Femur ([2]; 0.50 hr): 1.19 ± 0.48 % ID/g
percent injected dose per gram, Heart ([2]; 0.50 hr): 0.79 ± 0.52 % ID/g
percent injected dose per gram, Kidney ([2]; 0.50 hr): 2.58 ± 1.04 % ID/g
percent injected dose per gram, Liver ([2]; 0.50 hr): 1.65 ± 0.59 % ID/g
percent injected dose per gram, Liver (second Liver line of Table 7) ([2]; 0.50 hr): 0.48 ± 0.08 % ID/g
percent injected dose per gram, Lung ([2]; 0.50 hr): 1.64 ± 0.99 % ID/g
percent injected dose per gram, Spleen ([2]; 0.50 hr): 0.70 ± 0.15 % ID/g
percent injected dose per gram, Blood ([2]; 1.00 hr): 0.76 ± 1.09 % ID/g
percent injected dose per gram, Femur ([2]; 1.00 hr): 0.82 ± 0.26 % ID/g
percent injected dose per gram, Heart ([2]; 1.00 hr): 0.38 ± 0.31 % ID/g
percent injected dose per gram, Kidney ([2]; 1.00 hr): 2.00 ± 2.32 % ID/g
percent injected dose per gram, Liver ([2]; 1.00 hr): 0.88 ± 0.59 % ID/g
percent injected dose per gram, Liver (second Liver line of Table 7) ([2]; 1.00 hr): 0.32 ± 0.07 % ID/g
percent injected dose per gram, Lung ([2]; 1.00 hr): 1.16 ± 0.65 % ID/g
percent injected dose per gram, Spleen ([2]; 1.00 hr): 0.47 ± 0.26 % ID/g
percent injected dose per gram, Blood ([2]; 4.00 hr): 0.05 ± 0.05 % ID/g
percent injected dose per gram, Femur ([2]; 4.00 hr): 0.30 ± 0.04 % ID/g
percent injected dose per gram, Heart ([2]; 4.00 hr): 0.06 ± 0.02 % ID/g
percent injected dose per gram, Kidney ([2]; 4.00 hr): 0.74 ± 0.15 % ID/g
percent injected dose per gram, Liver ([2]; 4.00 hr): 0.17 ± 0.05 % ID/g
percent injected dose per gram, Liver (second Liver line of Table 7) ([2]; 4.00 hr): 0.29 ± 0.03 % ID/g
percent injected dose per gram, Lung ([2]; 4.00 hr): 0.10 ± 0.04 % ID/g
percent injected dose per gram, Spleen ([2]; 4.00 hr): 0.13 ± 0.08 % ID/g
percent injected dose per gram, Blood ([2]; 8.00 hr): 0.02 ± 0.00 % ID/g
percent injected dose per gram, Femur ([2]; 8.00 hr): 0.22 ± 0.06 % ID/g
percent injected dose per gram, Heart ([2]; 8.00 hr): 0.05 ± 0.01 % ID/g
percent injected dose per gram, Kidney ([2]; 8.00 hr): 0.49 ± 0.10 % ID/g
percent injected dose per gram, Liver ([2]; 8.00 hr): 0.20 ± 0.16 % ID/g
percent injected dose per gram, Liver (second Liver line of Table 7) ([2]; 8.00 hr): 0.22 ± 0.03 % ID/g
percent injected dose per gram, Lung ([2]; 8.00 hr): 0.16 ± 0.22 % ID/g
percent injected dose per gram, Spleen ([2]; 8.00 hr): 0.07 ± 0.02 % ID/g
percent injected dose per gram, Blood ([2]; 24.00 hr): 0.00 ± 0.00 % ID/g
percent injected dose per gram, Femur ([2]; 24.00 hr): 0.08 ± 0.02 % ID/g
percent injected dose per gram, Heart ([2]; 24.00 hr): 0.02 ± 0.01 % ID/g
percent injected dose per gram, Kidney ([2]; 24.00 hr): 0.35 ± 0.05 % ID/g
percent injected dose per gram, Liver ([2]; 24.00 hr): 0.10 ± 0.03 % ID/g
percent injected dose per gram, Liver (second Liver line of Table 7) ([2]; 24.00 hr): 0.17 ± 0.02 % ID/g
percent injected dose per gram, Lung ([2]; 24.00 hr): 0.23 ± 0.36 % ID/g
percent injected dose per gram, Spleen ([2]; 24.00 hr): 0.07 ± 0.02 % ID/g
blood and organ clearance (in words) ([2]; normal athymic mice): rapid blood and liver clearance
